“And” between values parts separate entries of the source, which are not always exact repeats. Identical values can stand only once. Inconclusive results and toxic doses are left out. Cut-off read from the data, not from the text of the source: active = T/C of 150% or more; inactive = T/C below 125%.
System: L1210 leukemia ip in BDF1 mice, survival T/C
Assay: NCI In Vivo Anticancer Drug Screen. Data for tumor model L1210 Leukemia (intraperitoneal) in B6D2F1 (BDF1) mice
Conditions: endpoint: mean survival time, higher = longer survival
In short: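 Mice bearing the transplanted tumor received compound or vehicle. Survival of the treated group was divided by that of the vehicle-treated control group to give the ratio.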

[1] = dose: 100.0 mg/kg/injection, schedule: Q04DX002 (ip), vehicle: saline with Tween-80
[2] = dose: 200.0 mg/kg/injection, schedule: Q04DX002 (ip), vehicle: saline with Tween-80
[3] = dose: 100.0 mg/kg/injection, schedule: Q01DX009 (ip), vehicle: Klucel (hydroxypropylcellulose) (HPC)
[4] = dose: 100.0 mg/kg/injection, schedule: Q01DX001 (ip), vehicle: carboxymethylcellulose (CMC)
[5] = dose: 200.0 mg/kg/injection, schedule: Q01DX001 (ip), vehicle: carboxymethylcellulose (CMC)
[6] = dose: 12.5 mg/kg/injection, schedule: Q01DX009 (ip), vehicle: saline with Tween-80
[7] = dose: 100.0 mg/kg/injection, schedule: Q01DX001 (ip), vehicle: saline
[8] = dose: 200.0 mg/kg/injection, schedule: Q01DX001 (ip), vehicle: saline
[9] = dose: 400.0 mg/kg/injection, schedule: Q01DX001 (ip), vehicle: saline
[10] = dose: 100.0 mg/kg/injection, schedule: Q01DX001 (ip), vehicle: Klucel (hydroxypropylcellulose) (HPC)
[11] = dose: 100.0 mg/kg/injection, schedule: Q04DX003 (ip), vehicle: Klucel (hydroxypropylcellulose) (HPC)
[12] = dose: 200.0 mg/kg/injection, schedule: Q01DX001 (ip), vehicle: Klucel (hydroxypropylcellulose) (HPC)
[13] = dose: 200.0 mg/kg/injection, schedule: Q04DX003 (ip), vehicle: Klucel (hydroxypropylcellulose) (HPC)

Measured: T/C

N#C/C(=C/c1cccc2ccccc12)C(N)=O
inactive: [1] 98 % of control | [2] 91 % of control | dose: 400.0 mg/kg/injection, schedule: Q04DX002 (ip), vehicle: saline with Tween-80 98 % of control

O=S(=O)(C(Cl)Cl)C(Cl)(Cl)S(=O)(=O)C(Cl)Cl
inactive: dose: 25.0 mg/kg/injection, schedule: Q01DX009 (ip), vehicle: Klucel (hydroxypropylcellulose) (HPC) 96 % of control | dose: 50.0 mg/kg/injection, schedule: Q01DX009 (ip), vehicle: Klucel (hydroxypropylcellulose) (HPC) 102 % of control | [3] 94 % of control and 90 % of control

Oc1ccc(Nc2ncnc3cc(Cl)ccc23)cc1CN(c1ccccc1)c1ccccc1
inactive: dose: 100.0 mg/kg/injection, schedule: Q04DX003 (ip), vehicle: saline 102 % of control | dose: 200.0 mg/kg/injection, schedule: Q04DX003 (ip), vehicle: saline 89 % of control

Cc1ccc(S(=O)(=O)F)cc1C(=O)O
inactive: [4] 96 % of control and 106 % of control | dose: 100.0 mg/kg/injection, schedule: Q01DX009 (ip), vehicle: carboxymethylcellulose (CMC) 93 % of control and 102 % of control | dose: 100.0 mg/kg/injection, schedule: Q04DX002 (ip), vehicle: gum acacia 101 % of control and 111 % of control | dose: 100.0 mg/kg/injection, schedule: Q04DX003 (ip), vehicle: carboxymethylcellulose (CMC) 93 % of control and 98 % of control | [5] 95 % of control and 100 % of control | dose: 200.0 mg/kg/injection, schedule: Q01DX009 (ip), vehicle: carboxymethylcellulose (CMC) 99 % of control and 100 % of control | dose: 200.0 mg/kg/injection, schedule: Q04DX002 (ip), vehicle: gum acacia 101 % of control and 104 % of control | dose: 200.0 mg/kg/injection, schedule: Q04DX003 (ip), vehicle: carboxymethylcellulose (CMC) 102 % of control | dose: 400.0 mg/kg/injection, schedule: Q04DX002 (ip), vehicle: gum acacia 107 % of control | dose: 400.0 mg/kg/injection, schedule: Q04DX003 (ip), vehicle: carboxymethylcellulose (CMC) 93 % of control

Nc1nc2ncc(CNc3ccc(C(=O)NC(CCC(=O)O)C(=O)O)cc3)nc2c(=O)[nH]1 (centres undefined)
inactive: dose: 1.6 mg/kg/injection, schedule: Q01DX009 (ip), vehicle: saline with Tween-80 93 % of control and 98 % of control | dose: 3.2 mg/kg/injection, schedule: Q01DX009 (ip), vehicle: saline with Tween-80 101 % of control and 109 % of control | dose: 6.3 mg/kg/injection, schedule: Q01DX009 (ip), vehicle: saline with Tween-80 93 % of control and 94 % of control | dose: 6.95 mg/kg/injection, schedule: Q01DX Z (ip), vehicle: carboxymethylcellulose (CMC) 96 % of control | [6] 101 % of control and 102 % of control | dose: 12.5 mg/kg/injection, schedule: Q04DX002 (ip), vehicle: saline with Tween-80 97 % of control and 100 % of control | dose: 13.9 mg/kg/injection, schedule: Q01DX Z (ip), vehicle: carboxymethylcellulose (CMC) 103 % of control | dose: 25.0 mg/kg/injection, schedule: Q01DX009 (ip), vehicle: saline with Tween-80 93 % of control and 100 % of control | dose: 25.0 mg/kg/injection, schedule: Q04DX002 (ip), vehicle: saline with Tween-80 97 % of control and 91 % of control | dose: 27.8 mg/kg/injection, schedule: Q01DX Z (ip), vehicle: carboxymethylcellulose (CMC) 101 % of control | dose: 50.0 mg/kg/injection, schedule: Q01DX009 (ip), vehicle: saline with Tween-80 98 % of control and 111 % of control | dose: 50.0 mg/kg/injection, schedule: Q04DX002 (ip), vehicle: saline with Tween-80 99 % of control and 100 % of control | dose: 55.6 mg/kg/injection, schedule: Q01DX Z (ip), vehicle: carboxymethylcellulose (CMC) 97 % of control | [1] 99 % of control and 102 % of control | [2] 103 % of control

Cc1c2ccccc2c(CSC(=N)N)c2ccccc12
inactive: dose: 4.0 mg/kg/injection, schedule: Q01DX009 (ip), vehicle: saline sonified 119 % of control | dose: 4.0 mg/kg/injection, schedule: Q01DX009 (ip), vehicle: saline with Tween-80 112 % of control | dose: 4.0 mg/kg/injection, schedule: Q01DX009 (ip), vehicle: saline 120 % of control | dose: 6.25 mg/kg/injection, schedule: Q01DX009 (ip), vehicle: saline 109 % of control | dose: 6.25 mg/kg/injection, schedule: Q04DX003 (ip), vehicle: saline 98 % of control | dose: 8.0 mg/kg/injection, schedule: Q01DX009 (ip), vehicle: saline sonified 117 % of control | dose: 8.0 mg/kg/injection, schedule: Q01DX009 (ip), vehicle: saline with Tween-80 119 % of control | [6] 108 % of control | dose: 12.5 mg/kg/injection, schedule: Q01DX009 (ip), vehicle: saline 123 % of control | dose: 12.5 mg/kg/injection, schedule: Q04DX003 (ip), vehicle: saline 108 % of control | dose: 18.75 mg/kg/injection, schedule: Q01DX009 (ip), vehicle: saline sonified 95 % of control | dose: 18.75 mg/kg/injection, schedule: Q01DX009 (ip), vehicle: saline with Tween-80 87 % of control | dose: 25.0 mg/kg/injection, schedule: Q01DX009 (ip), vehicle: saline 93 % of control | dose: 25.0 mg/kg/injection, schedule: Q04DX003 (ip), vehicle: saline 114 % of control and 118 % of control
active: dose: 12.5 mg/kg/injection, schedule: Q01DX009 (ip), vehicle: saline sonified 150 % of control

NCCCC(NC(=O)CCCCCCCCN=C(N)N)C(O)CCCCCCCCN=C(N)N (centres undefined)
inactive: dose: 0.38 mg/kg/injection, schedule: Q01DX Z (ip), vehicle: carboxymethylcellulose (CMC) 102 % of control | dose: 0.75 mg/kg/injection, schedule: Q01DX Z (ip), vehicle: carboxymethylcellulose (CMC) 94 % of control | dose: 1.5 mg/kg/injection, schedule: Q01DX Z (ip), vehicle: carboxymethylcellulose (CMC) 96 % of control | dose: 3.0 mg/kg/injection, schedule: Q01DX Z (ip), vehicle: carboxymethylcellulose (CMC) 107 % of control | dose: 5.0 mg/kg/injection, schedule: Q01DX001 (ip), vehicle: carboxymethylcellulose (CMC) 94 % of control | dose: 6.0 mg/kg/injection, schedule: Q01DX Z (ip), vehicle: carboxymethylcellulose (CMC) 121 % of control | dose: 10.0 mg/kg/injection, schedule: Q01DX001 (ip), vehicle: carboxymethylcellulose (CMC) 100 % of control | dose: 20.0 mg/kg/injection, schedule: Q01DX001 (ip), vehicle: carboxymethylcellulose (CMC) 103 % of control

O=C(COC(=O)c1ccccc1Br)c1ccc(-c2ccccc2)cc1
inactive: [7] 94 % of control | [8] 100 % of control | [9] 91 % of control

COc1c(C)c2c(c(Br)c1N)COCO2
inactive: dose: 50.0 mg/kg/injection, schedule: Q01DX001 (ip), vehicle: Klucel (hydroxypropylcellulose) (HPC) 94 % of control | [10] 92 % of control | [11] 95 % of control | [12] 94 % of control | [13] 97 % of control

O=[N+]([O-])c1ccc(/C=C/CCOc2ccccc2)cc1
inactive: [3] 98 % of control | [11] 97 % of control | dose: 200.0 mg/kg/injection, schedule: Q01DX009 (ip), vehicle: Klucel (hydroxypropylcellulose) (HPC) 96 % of control | [13] 105 % of control | dose: 400.0 mg/kg/injection, schedule: Q01DX009 (ip), vehicle: Klucel (hydroxypropylcellulose) (HPC) 91 % of control | dose: 400.0 mg/kg/injection, schedule: Q04DX003 (ip), vehicle: Klucel (hydroxypropylcellulose) (HPC) 105 % of control

COC(=O)c1cc(C)cc(N(c2ccccc2N)S(=O)(=O)c2ccc(C)cc2)c1C
inactive: [7] 92 % of control | [8] 92 % of control

CCCO[Si](C)(C)CCl
inactive: dose: 50.0 mg/kg/injection, schedule: Q01DX001 (ip), vehicle: carboxymethylcellulose (CMC) 92 % of control | [4] 92 % of control | [5] 92 % of control | dose: 400.0 mg/kg/injection, schedule: Q01DX001 (ip), vehicle: carboxymethylcellulose (CMC) 98 % of control

Cc1coc(NS(=O)(=O)c2ccc(N=Nc3c(N)[nH]c(=O)[nH]c3=O)cc2)c1C
inactive: [7] 103 % of control | [8] 96 % of control | [9] 104 % of control

CN1C(OO)CCOP1(=O)N(CCCl)CCCl (centres undefined)
inactive: dose: 75.0 mg/kg/injection, schedule: Q01DX001 (ip), vehicle: DMSO 96 % of control | dose: 150.0 mg/kg/injection, schedule: Q01DX001 (ip), vehicle: DMSO 99 % of control

NC(=S)c1cccc(S(=O)(=O)Nc2ccccc2)c1
inactive: [10] 103 % of control | [12] 105 % of control | dose: 400.0 mg/kg/injection, schedule: Q01DX001 (ip), vehicle: Klucel (hydroxypropylcellulose) (HPC) 101 % of control
